Key:
Type in all cases: biochemical
CcbF [1] = biological target: T1, CcbF (Streptomyces caelestis, UniProt E9JES7); assay: LC-MS, in vitro cascade with Ccb5 with or without Ccb4; details: PLP-dependent; coupled with Ccb5
T1 construct: recombinant celesticetin biosynthetic protein; construct not described in main text
T1 sequence (E9JES7 1-416): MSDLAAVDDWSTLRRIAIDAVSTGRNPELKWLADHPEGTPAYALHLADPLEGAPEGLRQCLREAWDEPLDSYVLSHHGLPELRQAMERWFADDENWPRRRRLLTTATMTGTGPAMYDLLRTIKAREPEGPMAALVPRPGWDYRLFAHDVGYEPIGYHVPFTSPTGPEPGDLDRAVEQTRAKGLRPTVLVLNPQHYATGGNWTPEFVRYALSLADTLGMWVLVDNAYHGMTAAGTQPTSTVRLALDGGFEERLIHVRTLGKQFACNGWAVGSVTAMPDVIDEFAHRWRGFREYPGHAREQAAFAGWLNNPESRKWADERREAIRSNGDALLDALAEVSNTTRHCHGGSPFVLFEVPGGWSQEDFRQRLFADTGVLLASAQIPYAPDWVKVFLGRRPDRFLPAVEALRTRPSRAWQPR

CcbF [2] = biological target: T1, CcbF; assay: LC-MS, in vitro cascade with Ccb5 and Ccb4; details: PLP-dependent; coupled with Ccb5 and Ccb4 to intermediate 45
Ccb2 = biological target: T2, Ccb2 (Streptomyces caelestis, UniProt E9JET8); assay: LC-MS detection of acyl-AMP conjugate; details: ATP
T2 construct: recombinant, heterologously produced in and purified from E. coli; 548 residues
T2 sequence (E9JET8 1-548): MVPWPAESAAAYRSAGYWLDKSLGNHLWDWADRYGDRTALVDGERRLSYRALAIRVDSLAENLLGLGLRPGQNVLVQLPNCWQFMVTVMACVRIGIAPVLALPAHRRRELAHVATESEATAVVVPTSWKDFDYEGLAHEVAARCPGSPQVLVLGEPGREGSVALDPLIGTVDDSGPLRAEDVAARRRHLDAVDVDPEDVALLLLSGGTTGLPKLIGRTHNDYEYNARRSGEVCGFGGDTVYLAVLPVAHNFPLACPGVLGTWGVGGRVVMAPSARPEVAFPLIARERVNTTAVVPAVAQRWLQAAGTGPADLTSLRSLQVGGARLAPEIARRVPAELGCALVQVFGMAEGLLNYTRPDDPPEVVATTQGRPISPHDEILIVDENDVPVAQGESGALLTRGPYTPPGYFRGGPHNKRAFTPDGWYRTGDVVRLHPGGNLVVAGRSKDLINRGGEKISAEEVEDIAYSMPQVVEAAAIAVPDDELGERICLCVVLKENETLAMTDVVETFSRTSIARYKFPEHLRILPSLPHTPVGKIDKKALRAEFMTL

CCC[C@H]1CN[C@H](C(=O)N[C@@H]([C@H]2O[C@H](SC[C@H](N)C(=O)O)[C@H](O)[C@@H](O)[C@H]2O)[C@@H](C)O)C1 [1a, lincomycin intermediate 1a]
LC-MS, in vitro cascade with Ccb5 with or without Ccb4 (CcbF [1]): Lincomycin intermediates 1a and 2a processed by celesticetin biosynthetic proteins

CCC[C@@H]1C[C@@H](C(=O)N[C@@H]([C@H]2O[C@H](SC[C@H](N)C(=O)O)[C@H](O)[C@@H](O)[C@H]2O)[C@@H](C)O)N(C)C1 [2a, lincomycin intermediate 2a]
LC-MS, in vitro cascade with Ccb5 and Ccb4 (CcbF [2]): in vitro processing of lincomycin intermediate 2a by the celesticetin biosynthetic proteins CcbF, Ccb5, and Ccb4

O=C(O)c1ccccc1 [compound 6, benzoic acid]
LC-MS detection of acyl-AMP conjugate (Ccb2): We detected products

— PMC5416915, “Elucidation of salicylate attachment in celesticetin biosynthesis opens the door to create a library of more efficient hybrid lincosamide antibiotics” (Chemical Science, 2017)
